In patent US5789431A, “Naphthoquinone antitumor compound and method” (The University of North Carolina at Chapel Hill, priority 1996, dated 1998):

Legend:
SK-MEL-5 = experiment: in vitro melanoma cell growth inhibition (NCI screen)
OVCAR-3 = experiment: in vitro ovarian cancer cell growth inhibition (NCI screen)
UACC-62 = experiment: in vitro melanoma cell growth inhibition (NCI screen)
MALME-3M = experiment: as above
NCI-H23 = experiment: in vitro non-small cell lung cancer cell growth inhibition (NCI screen)
HOP-92 = experiment: as above
RXF-631 = experiment: in vitro renal cancer cell growth inhibition (NCI screen)
HCT-116 = experiment: in vitro colon cancer cell growth inhibition (NCI screen)
COLO-205 = experiment: as above
OVCAR-4 = experiment: in vitro ovarian cancer cell growth inhibition (NCI screen); details: OVACR-4
MOLT-4 = experiment: in vitro leukemia cell growth inhibition (NCI screen)
K-562 = experiment: as above
ACHN = experiment: in vitro renal cancer cell growth inhibition (NCI screen)
M19-MEL = experiment: in vitro melanoma cell growth inhibition (NCI screen)
LOX1MVI = experiment: as above
HL-60(TB) = experiment: in vitro leukemia cell growth inhibition (NCI screen)
CCRF-CEM = experiment: as above
SF-539 = experiment: in vitro CNS cancer cell growth inhibition (NCI screen)
SW 620 = experiment: in vitro colon cancer cell growth inhibition (NCI screen)
UACC-257 = experiment: in vitro melanoma cell growth inhibition (NCI screen)
SK-MEL-2 = experiment: as above
DLD-1 = experiment: in vitro colon cancer cell growth inhibition (NCI screen)
UO-31 = experiment: in vitro renal cancer cell growth inhibition (NCI screen)
NCI-H522 = experiment: in vitro non-small cell lung cancer cell growth inhibition (NCI screen)
NCI-H460 = experiment: as above
RPMI-8226 = experiment: in vitro leukemia cell growth inhibition (NCI screen)
SNB-75 = experiment: in vitro CNS cancer cell growth inhibition (NCI screen)
SF-268 = experiment: as above
M14 = experiment: in vitro melanoma cell growth inhibition (NCI screen)
SF-295 = experiment: in vitro CNS cancer cell growth inhibition (NCI screen)
MDA-N = experiment: in vitro breast cancer cell growth inhibition (NCI screen)
EKVX = experiment: in vitro non-small cell lung cancer cell growth inhibition (NCI screen)
MCF-7 = experiment: in vitro breast cancer cell growth inhibition (NCI screen)
U 251 = experiment: in vitro CNS cancer cell growth inhibition (NCI screen)
SR = experiment: in vitro leukemia cell growth inhibition (NCI screen)
NCI-H266 = experiment: in vitro non-small cell lung cancer cell growth inhibition (NCI screen)
RXF-393 = experiment: in vitro renal cancer cell growth inhibition (NCI screen)
SN12C = experiment: as above
XF-498 = experiment: in vitro CNS cancer cell growth inhibition (NCI screen)
KM 12 = experiment: in vitro colon cancer cell growth inhibition (NCI screen)
SK-MEL-28 = experiment: in vitro melanoma cell growth inhibition (NCI screen)
PC-3 = experiment: in vitro prostate cancer cell growth inhibition (NCI screen)
TK-10 = experiment: in vitro renal cancer cell growth inhibition (NCI screen)
HOP-62 = experiment: in vitro non-small cell lung cancer cell growth inhibition (NCI screen)
786-0 = experiment: in vitro renal cancer cell growth inhibition (NCI screen)
human tumor cell lines = assay type: cell-based; details: cancer cell line panel
HCT-15 = experiment: in vitro colon cancer cell growth inhibition (NCI screen)
SNB-19 = experiment: in vitro CNS cancer cell growth inhibition (NCI screen)

Compound	cytotoxicity log GI50 (SK-MEL-5)	cytotoxicity log GI50 (OVCAR-3)	cytotoxicity log GI50 (UACC-62)	cytotoxicity log GI50 (MALME-3M)	cytotoxicity log GI50 (NCI-H23)	cytotoxicity log GI50 (HOP-92)	cytotoxicity log GI50 (RXF-631)	cytotoxicity log GI50 (HCT-116)	cytotoxicity log GI50 (OVCAR-4)	cytotoxicity log GI50 (MOLT-4)	cytotoxicity log GI50 (M19-MEL)	cytotoxicity log GI50 (HL-60(TB))	cytotoxicity log GI50 (CCRF-CEM)	cytotoxicity log GI50 (SF-539)	cytotoxicity log GI50 (UACC-257)	cytotoxicity log GI50 (SK-MEL-2)	cytotoxicity log GI50 (DLD-1)	cytotoxicity log GI50 (NCI-H522)	cytotoxicity log GI50 (RPMI-8226)	cytotoxicity log GI50 (RXF-393)	other results
COc1ccc(CNC2=C(NC(C)=O)C(=O)c3ccccc3C2=O)cc1 [Compound 41]	-5.13 M	-5.09 M	-5.11 M	-5.08 M	-5.17 M	-5.18 M	-5.19 M	-5.29 M	-5.09 M	-5.43 M	-5.02 M	-5.77 M	-5.06 M	-5.13 M	-5.06 M	-5.04 M	-5.07 M	-5.86 M			cytotoxicity log GI50 (COLO-205): -5.03 M; cytotoxicity log GI50 (K-562): -5.11 M; cytotoxicity log GI50 (ACHN): -5.68 M; cytotoxicity log GI50 (LOX1MVI): -5.07 M; cytotoxicity log GI50 (SW 620): -5.09 M; cytotoxicity log GI50 (UO-31): -5.02 M
CCn1c(Cc2ccc(F)cc2)nc2c1C(=O)c1ccccc1C2=O [Compound 66]				-4.94 M		-4.97 M	-4.82 M				-5.02 M	-5.33 M	-5.08 M	-4.88 M	-5.10 M			-5.06 M	-4.94 M		cytotoxicity log GI50 (NCI-H460): -4.90 M; cytotoxicity log GI50 (ACHN): -4.85 M; cytotoxicity log GI50 (SNB-75): -4.80 M; cytotoxicity log GI50 (UO-31): -5.33 M
O=C(O)CCCc1nc2c(n1Cc1ccccc1)C(=O)c1ccccc1C2=O [Compound 57]		-4.67 M	-4.76 M	-4.80 M	-4.50 M			-4.54 M	-4.69 M			-4.54 M	-5.28 M		-4.60 M	-4.83 M		-4.53 M	-4.73 M		cytotoxicity log GI50 (SF-268): -4.58 M; cytotoxicity log GI50 (M14): -5.43 M; cytotoxicity log GI50 (SF-295): -4.59 M; cytotoxicity log GI50 (MDA-N): -4.65 M; cytotoxicity log GI50 (EKVX): -4.50 M; cytotoxicity log GI50 (MCF-7): -4.53 M
CCC(c1ccc(F)cc1)c1nc2c(n1CC)C(=O)c1ccccc1C2=O (centres unmarked) [Compound 65]			-4.95 M			-4.75 M	-4.71 M			-4.73 M		-4.74 M				-4.77 M	-5.69 M		-4.68 M	-4.83 M	cytotoxicity log GI50 (U 251): -4.71 M; cytotoxicity log GI50 (SR): -4.73 M; cytotoxicity log GI50 (NCI-H266): -4.82 M; cytotoxicity log GI50 (SN12C): -4.90 M; cytotoxicity log GI50 (XF-498): -4.70 M
CCNC1=C(NC(=O)CCl)C(=O)c2ccccc2C1=O [Compound 44]	-4.78 M	-4.75 M						-4.74 M	-4.77 M									-4.82 M		-4.78 M	cytotoxicity log GI50 (KM 12): -4.77 M; cytotoxicity log GI50 (SK-MEL-28): -4.75 M; cytotoxicity log GI50 (PC-3): -4.80 M; cytotoxicity log GI50 (TK-10): -4.75 M; cytotoxicity log GI50 (MDA-N): -4.81 M; cytotoxicity log GI50 (HOP-62): -4.78 M; cytotoxicity log GI50 (EKVX): -4.80 M; cytotoxicity log GI50 (SN12C): -4.75 M
NC1=C(NC(=O)Cc2ccccc2F)C(=O)c2ccccc2C1=O [Compound 3b]		-5.08 M	-4.42 M	-4.87 M		-4.65 M					-5.35 M			-4.57 M	-4.53 M	-4.84 M	-4.78 M	-4.67 M		-4.46 M	cytotoxicity log GI50 (U 251): -4.44 M; cytotoxicity log GI50 (786-0): -4.57 M; cytotoxicity against tumor cells (in words) (human tumor cell lines): inactive against all representative cancer cell lines; cytotoxicity log GI50 (SF-268): -4.46 M; cytotoxicity log GI50 (HCT-15): -4.62 M; cytotoxicity log GI50 (SF-295): -4.49 M; cytotoxicity log GI50 (SNB-75): -4.73 M; cytotoxicity log GI50 (HOP-62): -4.59 M; cytotoxicity log GI50 (SNB-19): -4.45 M
